Experimental data taken from US10351546B2, “Pyridin-3-yl acetic acid derivatives as inhibitors of human immunodeficiency virus replication” (priority 2015, dated 2019).

What follows are compounds tested on NL-RLuc virus (assay: Inhibition of HIV replication (NL-RLuc luciferase reporter virus in MT-2 cells)). Settings: Human immunodeficiency virus 1, MT2, 120 h, read-out: Activity.
Type: cell-based
Outline: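 The read-out is Renilla luciferase expressed by replication-competent NL-RLuc (nef partly replaced), measured 5 days after infection of MT-2 cells grown with compound dilutions in 10% FBS RPMI. Median effect equation gives EC50 from ≥2 runs; A ≤100 nM, B 100 nM–1 uM, C >1 uM.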

Question: For `Cc1cccc(Cl)c1CN1CCc2cc(-c3c(CN4CCCC4)nc(C)c([C@H](OC(C)(C)C)C(=O)O)c3N3CCC(C)(C)CC3)ccc2C1` [Example 176, (S)-2-(tert-Butoxy)-2-(5-(2-(2-chloro-6-methylbenzyl)-1,2,3,4-tetrahydroisoquinolin-6-yl)-4-(4,4-dimethylpiperidin-1-yl)-2-methyl-6-(pyrrolidin-1-ylmethyl)pyridin-3-yl)acetic acid], which EC50 is on record?
Answer: The EC50 was < 0.1 µM.

Question: `CCOCc1nc(C)c([C@H](OC(C)(C)C)C(=O)O)c(N2CCC(C)(C)CC2)c1-c1ccc(OCCc2ccc(F)cc2)cc1` [Example 8, (S)-2-(tert-Butoxy)-2-(4-(4,4-dimethylpiperidin-1-yl)-6-(ethoxymethyl)-5-(4-(4-fluorophenethoxy)phenyl)-2-methylpyridin-3-yl)acetic acid] was tested. Which EC50 did it give?
Answer: The EC50 was < 0.1 µM.

Question: With `Cc1nc(CN(C)C)c([C@H](OC(C)(C)C)C(=O)O)c(N2CCC(C)(C)CC2)c1-c1ccc(OCCc2ccc(F)cc2)cc1` [Example 112, (S)-2-(tert-Butoxy)-2-(2-((dimethylamino)methyl)-4-(4,4-dimethylpiperidin-1-yl)-5-(4-(4-fluorophenethoxy)phenyl)-6-methylpyridin-3-yl)acetic acid] as the compound, how does the EC50 read?
Answer: Its EC50 is < 0.1 µM.

Question: Which EC50 does the source give for `Cc1nc(CO)c([C@H](OC(C)(C)C)C(=O)O)c(N2CCC(C)(C)CC2)c1-c1ccc(OCCc2ccc(F)cc2)cc1` [Example 1, (S)-2-(tert-Butoxy)-2-(4-(4,4-dimethylpiperidin-1-yl)-5-(4-(4-fluorophenethoxy)phenyl)-2-(hydroxymethyl)-6-methylpyridin-3-yl)acetic acid] here?
Answer: Its EC50 is < 0.1 µM.

Question: How did the EC50 turn out when `Cc1nc(CC2CCC(C)(C)CC2)c(-c2ccc(OCCc3ccc(F)cc3)cc2)c(N2CCC(C)(C)CC2)c1[C@H](OC(C)(C)C)C(=O)O` [Example 173, (S)-2-(tert-Butoxy)-2-(6-((4,4-dimethylcyclohexyl)methyl)-4-(4,4-dimethylpiperidin-1-yl)-5-(4-(4-fluorophenethoxy)phenyl)-2-methylpyridin-3-yl)acetic acid] was run?
Answer: The EC50 was < 0.1 µM.

Question: For `Cc1cc(F)ccc1CN1CCc2cc(-c3c(CN4CCN(C)CC4)nc(C)c([C@H](OC(C)(C)C)C(=O)O)c3N3CCC(C)(C)CC3)ccc2C1` [Example 136, (S)-2-(tert-Butoxy)-2-(4-(4,4-dimethylpiperidin-1-yl)-5-(2-(4-fluoro-2-methylbenzyl)-1,2,3,4-tetrahydroisoquinolin-6-yl)-2-methyl-6-((4-methylpiperazin-1-yl)methyl)pyridin-3-yl)acetic acid], which EC50 is on record?
Answer: The EC50 was < 0.1 µM.

Question: For `COCCNCc1nc(C)c([C@H](OC(C)(C)C)C(=O)O)c(N2CCC(C)(C)CC2)c1-c1ccc(OCCc2ccc(F)cc2)cc1` [Example 68, (S)-2-(tert-Butoxy)-2-(4-(4,4-dimethylpiperidin-1-yl)-5-(4-(4-fluorophenethoxy)phenyl)-6-(((2-methoxyethyl)amino)methyl)-2-methylpyridin-3-yl)acetic acid], which EC50 is on record?
Answer: Its EC50 is < 0.1 µM.

Question: For `Cc1nc(-c2nc3ccc(Cl)cc3[nH]2)c(-c2ccc(OCCc3ccc(F)cc3)cc2)c(N2CCC(C)(C)CC2)c1[C@H](OC(C)(C)C)C(=O)O` [Example 44, (S)-2-(tert-Butoxy)-2-(6-(6-chloro-1H-benzo[d]imidazol-2-yl)-4-(4,4-dimethylpiperidin-1-yl)-5-(4-(4-fluorophenethoxy)phenyl)-2-methylpyridin-3-yl)acetic acid], which EC50 is on record?
Answer: Its EC50 is < 0.1 µM.

Question: `Cc1nc(CN2CCC3(CCC3)CC2)c(-c2ccc(OCCc3ccc(F)cc3)cc2)c(N2CCC(C)(C)CC2)c1[C@H](OC(C)(C)C)C(=O)O` [Example 82, (S)-2-(6-(7-Azaspiro[3.5]nonan-7-ylmethyl)-4-(4,4-dimethylpiperidin-1-yl)-5-(4-(4-fluorophenethoxy)phenyl)-2-methylpyridin-3-yl)-2-(tert-butoxy)acetic acid] was tested. Which EC50 did it give?
Answer: Its EC50 is < 0.1 µM.

Question: With `CCOCCOCc1cc(N2CCC(C)(C)CC2)c([C@H](OC(C)(C)C)C(=O)O)c(C)n1` [Example 35, (S)-2-(tert-butoxy)-2-(4-(4,4-dimethylpiperidin-1-yl)-6-((2-ethoxyethoxy)methyl)-2-methylpyridin-3-yl)acetic acid] as the compound, how does the EC50 read?
Answer: Its EC50 is 0.1 to 1 µM.

Question: With `CCOCCOCc1nc(C)c([C@H](OC(C)(C)C)C(=O)O)c(N2CCC(C)(C)CC2)c1C` [Example 36, (S)-2-(tert-Butoxy)-2-(4-(4,4-dimethylpiperidin-1-yl)-6-((2-ethoxyethoxy)methyl)-2,5-dimethylpyridin-3-yl)acetic acid] as the compound, how does the EC50 read?
Answer: The EC50 was < 0.1 µM.

Question: `Cc1nc(CN2CCCCC2)c(-c2ccc(OCCc3ccc(F)cc3)cc2)c(N2CCC(C)(C)CC2)c1[C@H](OC(C)(C)C)C(=O)O` [Example 80, (S)-2-(tert-Butoxy)-2-(4-(4,4-dimethylpiperidin-1-yl)-5-(4-(4-fluorophenethoxy)phenyl)-2-methyl-6-(piperidin-1-ylmethyl)pyridin-3-yl)acetic acid] was tested. Which EC50 did it give?
Answer: Its EC50 is < 0.1 µM.

Question: `Cc1nc(CCCN(C)C)c(-c2ccc(OCCc3ccc(F)cc3)cc2)c(N2CCC(C)(C)CC2)c1[C@H](OC(C)(C)C)C(=O)O` [Example 59, (S)-2-(tert-Butoxy)-2-(6-(3-(dimethylamino)propyl)-4-(4,4-dimethylpiperidin-1-yl)-5-(4-(4-fluorophenethoxy)phenyl)-2-methylpyridin-3-yl)acetic acid] was tested. Which EC50 did it give?
Answer: Its EC50 is < 0.1 µM.

Question: With `Cc1nc(COCC2CCC2)c(-c2ccc(OCCc3ccc(F)cc3)cc2)c(N2CCC(C)(C)CC2)c1[C@H](OC(C)(C)C)C(=O)O` [Example 29, (S)-2-(tert-Butoxy)-2-(6-((cyclobutylmethoxy)methyl)-4-(4,4-dimethylpiperidin-1-yl)-5-(4-(4-fluorophenethoxy)phenyl)-2-methylpyridin-3-yl)acetic acid] as the compound, how does the EC50 read?
Answer: Its EC50 is < 0.1 µM.

Question: How did the EC50 turn out when `Cc1cc(C)n(COCc2nc(C)c([C@H](OC(C)(C)C)C(=O)O)c(N3CCC(C)(C)CC3)c2-c2ccc(OCCc3ccc(F)cc3)cc2)n1` [Example 25, (S)-2-(tert-Butoxy)-2-(6-(((3,5-dimethyl-1H-pyrazol-1-yl)methoxy)methyl)-4-(4,4-dimethylpiperidin-1-yl)-5-(4-(4-fluorophenethoxy)phenyl)-2-methylpyridin-3-yl)acetic acid] was run?
Answer: The EC50 was < 0.1 µM.

Question: `Cc1cc(F)ccc1CN1CCc2cc(-c3c(CO)nc(C)c([C@H](OC(C)(C)C)C(=O)O)c3N3CCC(C)(C)CC3)ccc2C1` [Example 113, (S)-2-(tert-Butoxy)-2-(4-(4,4-dimethylpiperidin-1-yl)-5-(2-(4-fluoro-2-methylbenzyl)-1,2,3,4-tetrahydroisoquinolin-6-yl)-6-(hydroxymethyl)-2-methylpyridin-3-yl)acetic acid] was tested. Which EC50 did it give?
Answer: The EC50 was < 0.1 µM.

Question: `Cc1nc(C(=O)O)c(-c2ccc(OCCc3ccc(F)cc3)cc2)c(N2CCC(C)(C)CC2)c1[C@H](OC(C)(C)C)C(=O)O` [Example 38, (S)-5-(tert-Butoxy(carboxy)methyl)-4-(4,4-dimethylpiperidin-1-yl)-3-(4-(4-fluorophenethoxy)phenyl)-6-methylpicolinic acid] was tested. Which EC50 did it give?
Answer: Its EC50 is 0.1 to 1 µM.

Question: How did the EC50 turn out when `Cc1nc(CN(C)CC2CCOCC2)c(-c2ccc(OCCc3ccc(F)cc3)cc2)c(N2CCC(C)(C)CC2)c1[C@H](OC(C)(C)C)C(=O)O` [Example 84, (S)-2-(tert-Butoxy)-2-(4-(4,4-dimethylpiperidin-1-yl)-5-(4-(4-fluorophenethoxy)phenyl)-2-methyl-6-((methyl((tetrahydro-2H-pyran-4-yl)methyl)amino)methyl)pyridin-3-yl)acetic acid] was run?
Answer: The EC50 was < 0.1 µM.

Question: For `Cc1nc(CN2CCC2)c(-c2ccc(OCCc3ccc(F)cc3)cc2)c(N2CCC(C)(C)CC2)c1[C@H](OC(C)(C)C)C(=O)O` [Example 81, (S)-2-(6-(Azetidin-1-ylmethyl)-4-(4,4-dimethylpiperidin-1-yl)-5-(4-(4-fluorophenethoxy)phenyl)-2-methylpyridin-3-yl)-2-(tert-butoxy)acetic acid], which EC50 is on record?
Answer: The EC50 was < 0.1 µM.

Question: How did the EC50 turn out when `Cc1nc(CN2[C@@H]3CC[C@H]2CN(C)C3)c(-c2ccc(OCCc3ccc(F)cc3)cc2)c(N2CCC(C)(C)CC2)c1[C@H](OC(C)(C)C)C(=O)O` [Example 96, (S)-2-(tert-butoxy)-2-(4-(4,4-dimethylpiperidin-1-yl)-5-(4-(4-fluorophenethoxy)phenyl)-2-methyl-6-(((1R,5S)-3-methyl-3,8-diazabicyclo[3.2.1]octan-8-yl)methyl)pyridin-3-yl)acetic acid] was run?
Answer: Its EC50 is < 0.1 µM.

Question: With `Cc1nc(COC2CCCC2)c(-c2ccc(OCCc3ccc(F)cc3)cc2)c(N2CCC(C)(C)CC2)c1[C@H](OC(C)(C)C)C(=O)O` [Example 11, (S)-2-(tert-Butoxy)-2-(6-((cyclopentyloxy)methyl)-4-(4,4-dimethylpiperidin-1-yl)-5-(4-(4-fluorophenethoxy)phenyl)-2-methylpyridin-3-yl)acetic acid] as the compound, how does the EC50 read?
Answer: The EC50 was < 0.1 µM.

Question: `COCCNC(=O)c1nc(C)c([C@H](OC(C)(C)C)C(=O)O)c(N2CCC(C)(C)CC2)c1-c1ccc(OCCc2ccc(F)cc2)cc1` [Example 39, (S)-2-(tert-Butoxy)-2-(4-(4,4-dimethylpiperidin-1-yl)-5-(4-(4-fluorophenethoxy)phenyl)-6-((2-methoxyethyl)carbamoyl)-2-methylpyridin-3-yl)acetic acid] was tested. Which EC50 did it give?
Answer: Its EC50 is < 0.1 µM.

Question: `Cc1cc(F)ccc1CN1CCc2cc(-c3c(N)nc(C)c([C@H](OC(C)(C)C)C(=O)O)c3N3CCC(C)(C)CC3)ccc2C1` [Example 147, (S)-2-(6-Amino-4-(4,4-dimethylpiperidin-1-yl)-5-(2-(4-fluoro-2-methylbenzyl)-1,2,3,4-tetrahydroisoquinolin-6-yl)-2-methylpyridin-3-yl)-2-(tert-butoxy)acetic acid] was tested. Which EC50 did it give?
Answer: Its EC50 is < 0.1 µM.

Question: `Cc1cc(F)ccc1CN1CCc2cc(-c3c(CN(C)C)nc(C)c([C@H](OC(C)(C)C)C(=O)O)c3N3CCC(C)(C)CC3)ccc2C1` [Example 115, (S)-2-(tert-Butoxy)-2-(6-((dimethylamino)methyl)-4-(4,4-dimethylpiperidin-1-yl)-5-(2-(4-fluoro-2-methylbenzyl)-1,2,3,4-tetrahydroisoquinolin-6-yl)-2-methylpyridin-3-yl)acetic acid] was tested. Which EC50 did it give?
Answer: Its EC50 is < 0.1 µM.

Same assay, conditions: Human immunodeficiency virus 1, MT2, 120 h, read-out: EC50 μM

Question: How did the EC50 turn out when `Cc1nc(CO)c([C@H](OC(C)(C)C)C(=O)O)c(N2CCC(C)(C)CC2)c1-c1ccc(OCCc2ccc(F)cc2)cc1` [Example 1, (S)-2-(tert-Butoxy)-2-(4-(4,4-dimethylpiperidin-1-yl)-5-(4-(4-fluorophenethoxy)phenyl)-2-(hydroxymethyl)-6-methylpyridin-3-yl)acetic acid] was run?
Answer: Its EC50 is 0.003 µM.

Question: Which EC50 does the source give for `Cc1nc(CC2CCC(C)(C)CC2)c(-c2ccc(OCCc3ccc(F)cc3)cc2)c(N2CCC(C)(C)CC2)c1[C@H](OC(C)(C)C)C(=O)O` [Example 173, (S)-2-(tert-Butoxy)-2-(6-((4,4-dimethylcyclohexyl)methyl)-4-(4,4-dimethylpiperidin-1-yl)-5-(4-(4-fluorophenethoxy)phenyl)-2-methylpyridin-3-yl)acetic acid] here?
Answer: The EC50 was 0.035 µM.

Question: Which EC50 does the source give for `CCOCCOCc1cc(N2CCC(C)(C)CC2)c([C@H](OC(C)(C)C)C(=O)O)c(C)n1` [Example 35, (S)-2-(tert-butoxy)-2-(4-(4,4-dimethylpiperidin-1-yl)-6-((2-ethoxyethoxy)methyl)-2-methylpyridin-3-yl)acetic acid] here?
Answer: The EC50 was 0.316 µM.
